The subject of data set [1] is MSCs. Put plainly: Quantification of mineralisation (Alizarin Red staining) by MSCs-derived osteoblasts. The settings on record: MSCs 15 days in osteogenic medium, mean ± SEM. The data set is classed as cell-based, human. On the procedure: Human bone marrow derived MSCs were cultured in normal growth medium (MSCGM, Sigma Aldrich), plated (5.000 cells/cm^2) in 75-cm^2 flasks and incubated at 37 °C in 5% CO2 and 95% air. The medium was changed to remove non adherent cells every 3 to 4 days and the cells were used at passages 2 to 6.
MSCs were seeded at a density of 3300 cells/cm^2 and maintained in growth medium for 2 days. Then, medium was replaced with Mesenchymal Stem Cell Osteogenic Differentiation Medium (Cat. N. C-28013, Sigma Aldrich) and treated in the absence (control) or in the presence of BAY60-6583 (5 nM) alone or in combination with the new compounds. Treatments were repeated every 3 days and the mineralisation was quantified after 15 days of treatment. The rate of mineralisation was quantified using alizarin red staining as previously reported. Briefly, cells were washed with PBS, fixed (4% formaldehyde in PBS) for 15 min and washed three times with PBS. Then, Alizarin Red S (1:100 in distilled water, adjusted to pH 4.2 and filtered) was added and incubated for 20 min, at the end cells were washed (five times) in 50% ethanol and air dried. For quantification, cells were destained overnight in 10% (w/v) cetylpyridinium chloride at room temperature and the absorbance was read using a spectrophotometer (Victor Wallac 2, Perkin Elmer) at 562 nm.
Figure 1. Effects of the new compounds on mineralisation mediated by MSCs-derived osteoblast. MSCs were cultured for 15 days in osteogenic medium with compounds at 1 μM concentration in the presence (A) or in the absence (B) of the A2B AR agonist BAY60-6583 (5 nM). After treatments, cells were stained with Alizarin Red and mineralisation was evaluated as reported in Experimental section. Data are expressed as percentage of mineralisation versus the CTRL set to 100% and represent the mean ± SEM of at least two independent experiments. Each experiment was performed in duplicate. *p < 0.05; **p < 0.01; ***p < 0.001 vs. CTRL. #p < 0.05; ###p < 0.001 vs. BAY60-6583 or NECA.

The test system of data set [2] is MSCs. Further details: method as in PMID 25241343. To be noted: read-out: EC50, potency on MSCs; cited from earlier work.
Data set [3] deals with T1, human A1 adenosine receptors (Homo sapiens, UniProt P30542).
T1 construct: K. N. Klotz, Wurzburg University (gift); host or cells: CHO cells, stably transfected; membranes used
T1 sequence (P30542 1-326): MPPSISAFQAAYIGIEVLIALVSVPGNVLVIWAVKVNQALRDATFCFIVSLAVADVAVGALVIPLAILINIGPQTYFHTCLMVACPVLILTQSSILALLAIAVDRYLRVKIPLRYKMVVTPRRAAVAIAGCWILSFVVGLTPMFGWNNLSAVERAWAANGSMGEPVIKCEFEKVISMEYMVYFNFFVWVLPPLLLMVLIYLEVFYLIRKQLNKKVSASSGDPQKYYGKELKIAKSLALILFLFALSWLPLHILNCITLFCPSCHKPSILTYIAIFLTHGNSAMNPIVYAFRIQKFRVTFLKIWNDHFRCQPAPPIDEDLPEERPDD
Put plainly: Human A1 adenosine receptor competition binding ([3H]DPCPX, CHO cell membranes). To be noted: radioligand binding, A1 AR. On the procedure: (§1) ADA (Cat. N. 10102105001) was from Sigma Aldrich (Italy). All other reagents were from commercial sources and of the highest commercially available grade. CHO cells stably expressing human A1, A2A, A3 and A2B ARs were kindly supplied by Prof. K. N. Klotz, Wurzburg University, Germany. MSCs (Cat. N. SCC034) were purchased by Sigma Aldrich (Milan, Italy).
Competition binding experiments were performed as previously reported. […] R-PIA (50 µM) was used for the determination of non-specific binding.

Data set [4] addresses T2, human A3 adenosine receptors (Homo sapiens, UniProt P0DMS8).
T2 construct: K. N. Klotz, Wurzburg University (gift); host or cells: CHO cells, stably transfected; membranes used
T2 sequence (P0DMS8 1-318): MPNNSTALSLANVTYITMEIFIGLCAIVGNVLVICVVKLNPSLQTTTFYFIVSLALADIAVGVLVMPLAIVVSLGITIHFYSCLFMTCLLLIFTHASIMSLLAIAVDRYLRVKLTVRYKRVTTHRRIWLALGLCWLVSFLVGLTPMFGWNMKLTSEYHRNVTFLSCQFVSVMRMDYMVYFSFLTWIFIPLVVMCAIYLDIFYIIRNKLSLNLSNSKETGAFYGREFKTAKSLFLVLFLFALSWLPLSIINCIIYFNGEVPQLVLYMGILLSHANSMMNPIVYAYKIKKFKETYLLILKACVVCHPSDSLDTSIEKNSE
Put plainly: Human A3 adenosine receptor competition binding ([3H]NECA, CHO cell membranes). To be noted: radioligand binding, A3 AR. As to the method: as §1
Competition binding experiments were performed as previously reported. Briefly, cell membranes of A3 CHO cells were incubated at 25 °C for 180 min in 500 µL of buffer in the presence of [^3H]NECA (30 nM) and six different concentrations of the newly synthesised compounds. NECA (100 µM) was used for the determination of non-specific binding.

The target of data set [5] is T3, human A2A adenosine receptors (Homo sapiens, UniProt P29274).
T3 construct: K. N. Klotz, Wurzburg University (gift); host or cells: CHO cells, stably transfected; membranes used
Briefly: Human A2A adenosine receptor competition binding ([3H]NECA, CHO cell membranes). The settings on record: radioligand binding, A2A AR. On the procedure:
as §1
Competition binding experiments were performed as previously reported. Briefly, membranes of A2A CHO cells were incubated at 25 °C for 90 min in 500 µL of buffer in the presence of [^3H]NECA (30 nM) and six different concentrations of the newly synthesised compounds. NECA (100 µM) was used for the determination of non-specific binding.

For data set [6], the target named is T4, human A2B AR (Homo sapiens, UniProt P29275).
T4 construct: K. N. Klotz, Wurzburg University (gift); host or cells: CHO cells, stably transfected
T4 sequence (P29275 1-332): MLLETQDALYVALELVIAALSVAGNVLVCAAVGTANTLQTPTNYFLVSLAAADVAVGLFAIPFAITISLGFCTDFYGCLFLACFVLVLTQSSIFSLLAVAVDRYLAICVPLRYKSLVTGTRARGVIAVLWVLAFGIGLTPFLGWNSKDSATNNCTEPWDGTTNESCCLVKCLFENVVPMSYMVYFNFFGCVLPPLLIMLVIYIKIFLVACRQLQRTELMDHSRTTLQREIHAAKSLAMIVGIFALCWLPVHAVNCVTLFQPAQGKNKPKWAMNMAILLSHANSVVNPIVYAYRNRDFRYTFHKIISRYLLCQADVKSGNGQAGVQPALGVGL
Put plainly: Measurement of cyclic AMP levels in A2B AR CHO cells. The data set is classed as cell-based. As to the method:
Intracellular cyclic AMP (cAMP) levels were measured using a competitive protein binding method, as previously reported[31] A2B AR CHO cells were seed at a density of 24 000 cell/cm^2 in a 24 multiwell plate. After 48 h, the medium was removed and the cells were incubated at 37 °C for 15 min with 500 µL of Dulbecco’s Modified Eagle Medium (DMEM) in the presence of ADA (1 U/mL) and the phosphodiesterase inhibitor Ro20-1724 (20 µM).
The agonist efficacy profile of the compounds at ARs was evaluated by assessing their ability to modulate intracellular cAMP levels in the absence of standard agonists. The antagonism profile of the new compounds was evaluated by assessing their ability to inhibit 100 nM NECA-mediated accumulation of cAMP. The new compounds were incubated 10 min before the addiction of the agonists. Then, cells were incubated in the reaction medium for 15 min at 37 °C. The reaction was stopped by the removal of the medium and the addition of 0.4 N HCl. After 30 min, lysates were neutralised with 4 N KOH and the suspension was centrifuged at 800 g for 5 min. For the determination of cAMP production, bovine adrenal cAMP-binding protein was incubated with [^3H]cAMP (2 nM) at 0 °C for 150 min in a total volume of 300 µL. Bound radioactivity was separated by rapid filtration. The radioactivity was measured by liquid scintillation spectrometry.
Figure 2. Effects of compound 9 as positive allosteric modulator of the A2B AR. A) Effects of 9 on NECA-mediated cAMP accumulation in human A2B AR-transfected CHO cells. CHO cells were treated with an EC50 NECA concentration (100 nM) in the absence or presence of different concentrations of the tested compound (1 nM–10 μM). […] CHO cells were treated with different NECA concentration (1 nM–10 μM) in the absence or presence of 9 (650 nM or 6.5 μM). After 15 min incubation, the reaction was stopped and the intracellular cAMP levels were quantified. The data are expressed as the percentage of cAMP/well versus the maximal NECA effect, which was set to 100% and represent the mean ± SEM of at least three different experiments. Each experiment was performed in duplicate.

The mark [7] stands for this setting: compound 1 μM alone, in the absence of BAY60-6583.
Where [8] appears, read: compound 1 μM in the presence of BAY60-6583 (5 nM).
Setting [9] is: NECA concentration-response curves (1 nM-10 μM) in absence or presence of 9 (650 nM and 6.5 µM).

T3 sequence (P29274 whole entry): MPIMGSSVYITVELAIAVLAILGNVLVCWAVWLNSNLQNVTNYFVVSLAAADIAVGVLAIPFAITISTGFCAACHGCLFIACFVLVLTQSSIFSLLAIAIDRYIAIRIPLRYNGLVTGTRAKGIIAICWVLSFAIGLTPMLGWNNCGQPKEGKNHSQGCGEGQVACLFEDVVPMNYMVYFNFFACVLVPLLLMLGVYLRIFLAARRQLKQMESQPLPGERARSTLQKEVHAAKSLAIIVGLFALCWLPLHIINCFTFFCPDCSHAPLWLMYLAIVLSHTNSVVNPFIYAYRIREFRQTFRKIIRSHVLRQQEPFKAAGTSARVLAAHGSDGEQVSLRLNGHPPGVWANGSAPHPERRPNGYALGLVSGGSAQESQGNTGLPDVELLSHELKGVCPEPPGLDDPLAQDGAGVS

As usually defined, the EC50 is the concentration at which the effect is half-maximal. Take `N#Cc1c(N)nc(SCC(N)=O)c(C#N)c1-c1ccc(OCC2CC2)cc1` [BAY60-6583, reference compound]: the “percentage of mineralisation versus the CTRL set to 100%” value (“percentage … to 100%” for short) in data set [1] (BAY60-6583 5 nM alone) is reported as 129.5 ± 1.9%. For the same compound, in data set [2], the EC50 was 6 nM.

Usually melting point stands for the temperature of the solid-liquid transition. As to `O=C(Nc1ccccc1)C(=O)c1cn(CCc2ccccc2)c2ccccc12` [Compound 4], the melting point lay within 139 to 140 °C. Further, the “percentage … to 100%” value in data set [1] (setting [7]) was 130.0 ± 6.8%. The “percentage … to 100%” value in data set [1] (setting [8]) amounted to 179.2 ± 9.6%.

Take `O=C(NCc1ccccc1)C(=O)c1cn(CCc2ccccc2)c2ccccc12` [Compound 5, N-Benzyl-2-(1-phenylethyl-1H-indol-3-yl)glyoxylamide]: the melting point fell in the range of 83 to 85 °C. In addition, the “percentage … to 100%” value in data set [1] (setting [7]) came to 128.7 ± 3.6%. Moreover, the “percentage … to 100%” value in data set [1] (setting [8]) came out at 152.3 ± 4.3%.

The compound `Cn1cc(C(=O)C(=O)Nc2ccccc2)c2ccccc21` [Compound 6, N-Phenyl-2-(1-methyl-1H-indol-3-yl)glyoxylamide] yielded a melting point of 167 to 169 °C.

For the compound `Cn1cc(C(=O)C(=O)NCc2ccccc2)c2ccccc21` [Compound 7, N-Benzyl-2-(1-methyl-1H-indol-3-yl)glyoxylamide], the melting point lay in the range of 147 to 149 °C.

On to `O=C(NCc1ccccc1)C(=O)c1csc2ccccc12` [Compound 8, N-Benzyl-2-(benzothien-3-yl)glyoxylamide], for which the melting point lay within 87 to 89 °C. For the same compound, the “percentage … to 100%” value in data set [1] (setting [7]) is “inactivity”.

For orientation: Ki means a dissociation constant, usually derived from enzyme kinetics or from competition with a known ligand. A lower Ki goes with higher affinity. The compound `O=C(NCc1ccc(Cl)cc1)C(=O)c1cc2ccccc2o1` [Compound 9, N-(4-Chlorobenzyl)-2-(benzofuran-2-yl)glyoxylamide] came in with a melting point of 137 to 139 °C. This compound also showed a Ki in data set [3] greater than 10000 nM. The compound also came in with a Ki in data set [4] greater than 10000 nM. Also, the “percentage … to 100%” value in data set [1] (setting [7]) is on record as 111.5 ± 4.6%. Also, the “percentage … to 100%” value in data set [1] (setting [8]) is given as 156.8 ± 7.6%. Further, in data set [5], the Ki was greater than 10000 nM. Besides, in data set [6] (setting [9]), the “effect on efficacy of NECA in stimulating cAMP accumulation” value is given as “significantly enhanced the efficacy of NECA” and the “effect on potency of NECA in stimulating cAMP accumulation” value is recorded as “without affecting agonist potency”. In addition, in data set [6] (compound 1 nM-10 µM in the presence of NECA 100 nM, human A2B AR-transfected CHO cells, read-out: EC50, positive allosteric modulation of A2B AR (NECA-mediated cAMP accumulation)), the EC50 stood at 636 ± 65.3 nM. Besides, in data set [6] (compound 10 µM alone, CHO cells expressing human A2B AR, mean ± SEM), the “% cAMP production (vs NECA 100 nM set to 100%), Alone” value is given as 2.7 ± 1.3%. Also, the “% cAMP production (vs NECA 100 nM set to 100%), + agonist” value in data set [6] (compound 10 µM in the presence of NECA (100 nM), CHO cells expressing human A2B AR, mean ± SEM) came out at 184.0 ± 11.7 %.

With `O=C(NCc1ccccc1)C(=O)c1cccs1` [Compound 10, N-Benzyl-2-(thien-2-yl)glyoxylamide], the melting point lay in the range of 95.6 to 95.8 °C. Also, the “percentage … to 100%” value in data set [1] (setting [7]) is “inactivity”. Further, in data set [1] (setting [8]), the “percentage … to 100%” value is listed as 150.6 ± 2.6%.

Take `Cn1cc(C(=O)C(=O)c2ccccc2)c2ccccc21` [Compound 13, 1-(1-Methyl-1H-indol-3-yl)-2-phenyl-1,2-ethanedione]: the melting point is 88 to 90 °C.

The record behind these values is paper PMC7751416, “Novel positive allosteric modulators of A2B adenosine receptor acting as bone mineralisation promoters” (Journal of Enzyme Inhibition and Medicinal Chemistry, 2020).
